Measurements: ChEMBL document CHEMBL2396621, “Design, synthesis and biological evaluation of 2-mercapto-3-phenethylquinazoline bearing anilide fragments as potential antitumor agents: molecular docking study” (2013)

Experiments:
Type in all cases: functional
NCI-H322M = test: Cytotoxicity against human NCI-H322M cells assessed as growth inhibition at 10 uM after 48 hrs by coulter counter analysis; conditions: read-out: GI
NCI-H23 = test: Cytotoxicity against human NCI-H23 cells assessed as growth inhibition at 10 uM after 48 hrs by coulter counter analysis; conditions: NCI-H23, 48 h, read-out: GI
NCI-H226 = test: Cytotoxicity against human NCI-H226 cells assessed as growth inhibition at 10 uM after 48 hrs by coulter counter analysis; conditions: NCI-H226, 48 h, read-out: GI
HOP-62 = test: Cytotoxicity against human HOP62 cells assessed as growth inhibition at 10 uM after 48 hrs by coulter counter analysis; conditions: HOP-62, 48 h, read-out: GI
[1] = Cytotoxicity against human EKVX cells assessed as growth inhibition at 10 uM after 48 hrs by coulter counter analysis; conditions: read-out: GI
MDA-MB-468 = test: Cytotoxicity against human MDA-MB-468 cells assessed as growth inhibition at 10 uM after 48 hrs by coulter counter analysis; conditions: MDA-MB-468, 48 h, read-out: GI
Hs-578T = test: Cytotoxicity against human Hs578T cells assessed as growth inhibition at 10 uM after 48 hrs by coulter counter analysis; conditions: read-out: GI
DU-145 = test: Cytotoxicity against human DU145 cells assessed as growth inhibition at 10 uM after 48 hrs by coulter counter analysis; conditions: DU-145, 48 h, read-out: GI
PC-3 = test: Cytotoxicity against human PC3 cells assessed as growth inhibition at 10 uM after 48 hrs by coulter counter analysis; conditions: PC-3, 48 h, read-out: GI
UO-31 = test: Cytotoxicity against human UO31 cells assessed as growth inhibition at 10 uM after 48 hrs by coulter counter analysis; conditions: UO-31, 48 h, read-out: GI
TK-10 = test: Cytotoxicity against human TK10 cells assessed as growth inhibition at 10 uM after 48 hrs by coulter counter analysis; conditions: TK-10, 48 h, read-out: GI
CAKI-1 = test: Cytotoxicity against human Caki1 cells assessed as growth inhibition at 10 uM after 48 hrs by coulter counter analysis; conditions: CAKI-1, 48 h, read-out: GI
ACHN = test: Cytotoxicity against human ACHN cells assessed as growth inhibition at 10 uM after 48 hrs by coulter counter analysis; conditions: read-out: GI
786-0 = test: Cytotoxicity against human 786-0 cells assessed as growth inhibition at 10 uM after 48 hrs by coulter counter analysis; conditions: 786-0, 48 h, read-out: GI
[2] = Cytotoxicity against human NCI-ADR-RES cells assessed as growth inhibition at 10 uM after 48 hrs by coulter counter analysis; conditions: read-out: GI
OVCAR-8 = test: Cytotoxicity against human OVCAR8 cells assessed as growth inhibition at 10 uM after 48 hrs by coulter counter analysis; conditions: OVCAR-8, 48 h, read-out: GI
OVCAR-4 = test: Cytotoxicity against human OVCAR4 cells assessed as growth inhibition at 10 uM after 48 hrs by coulter counter analysis; conditions: OVCAR-4, 48 h, read-out: GI
OVCAR-3 = test: Cytotoxicity against human OVCAR3 cells assessed as growth inhibition at 10 uM after 48 hrs by coulter counter analysis; conditions: OVCAR-3, 48 h, read-out: GI
IGROV-1 = test: Cytotoxicity against human IGROV1 cells assessed as growth inhibition at 10 uM after 48 hrs by coulter counter analysis; conditions: IGROV-1, 48 h, read-out: GI
UACC-62 = test: Cytotoxicity against human UACC62 cells assessed as growth inhibition at 10 uM after 48 hrs by coulter counter analysis; conditions: UACC-62, 48 h, read-out: GI
UACC-257 = test: Cytotoxicity against human UACC257 cells assessed as growth inhibition at 10 uM after 48 hrs by coulter counter analysis; conditions: UACC-257, 48 h, read-out: GI
SK-MEL-5 = test: Cytotoxicity against human SK-MEL-5 cells assessed as growth inhibition at 10 uM after 48 hrs by coulter counter analysis; conditions: SK-MEL-5, 48 h, read-out: GI
SK-MEL-28 = test: Cytotoxicity against human SK-MEL-28 cells assessed as growth inhibition at 10 uM after 48 hrs by coulter counter analysis; conditions: SK-MEL-28, 48 h, read-out: GI
MDA-MB-435 = test: Cytotoxicity against human MDA-MB-435 cells assessed as growth inhibition at 10 uM after 48 hrs by coulter counter analysis; conditions: MDA-MB-435, 48 h, read-out: GI
M14 = test: Cytotoxicity against human M14 cells assessed as growth inhibition at 10 uM after 48 hrs by coulter counter analysis; conditions: M14, 48 h, read-out: GI
LOX IMVI = test: Cytotoxicity against human LOXIMVI cells assessed as growth inhibition at 10 uM after 48 hrs by coulter counter analysis; conditions: read-out: GI
U-251 = test: Cytotoxicity against human U251 cells assessed as growth inhibition at 10 uM after 48 hrs by coulter counter analysis; conditions: U-251, 48 h, read-out: GI
SNB-75 = test: Cytotoxicity against human SNB75 cells assessed as growth inhibition at 10 uM after 48 hrs by coulter counter analysis; conditions: SNB-75, 48 h, read-out: GI
SF-295 = test: Cytotoxicity against human SF295 cells assessed as growth inhibition at 10 uM after 48 hrs by coulter counter analysis; conditions: SF-295, 48 h, read-out: GI
SF-268 = test: Cytotoxicity against human SF268 cells assessed as growth inhibition at 10 uM after 48 hrs by coulter counter analysis; conditions: SF-268, 48 h, read-out: GI
KM12 = test: Cytotoxicity against human KM12 cells assessed as growth inhibition at 10 uM after 48 hrs by coulter counter analysis; conditions: KM12, 48 h, read-out: GI
HT-29 = test: Cytotoxicity against human HT-29 cells assessed as growth inhibition at 10 uM after 48 hrs by coulter counter analysis; conditions: HT-29, 48 h, read-out: GI
HCT-15 = test: Cytotoxicity against human HCT15 cells assessed as growth inhibition at 10 uM after 48 hrs by coulter counter analysis; conditions: HCT-15, 48 h, read-out: GI
HCT-116 = test: Cytotoxicity against human HCT116 cells assessed as growth inhibition at 10 uM after 48 hrs by coulter counter analysis; conditions: HCT-116, 48 h, read-out: GI
HCC 2998 = test: Cytotoxicity against human HCC2998 cells assessed as growth inhibition at 10 uM after 48 hrs by coulter counter analysis; conditions: HCC 2998, 48 h, read-out: GI
COLO 205 = test: Cytotoxicity against human COLO205 cells assessed as growth inhibition at 10 uM after 48 hrs by coulter counter analysis; conditions: COLO 205, 48 h, read-out: GI
NCI-H460 = test: Cytotoxicity against human NCI-H460 cells assessed as growth inhibition at 10 uM after 48 hrs by coulter counter analysis; conditions: NCI-H460, 48 h, read-out: GI

Structure (SMILES) | inhibition of growth at 10 µM (NCI-H322M) | inhibition of growth at 10 µM (NCI-H23) | inhibition of growth at 10 µM (NCI-H226) | inhibition of growth at 10 µM (HOP-62) | inhibition of growth at 10 µM [1] | inhibition of growth at 10 µM (MDA-MB-468) | inhibition of growth at 10 µM (Hs-578T) | inhibition of growth at 10 µM (DU-145) | inhibition of growth at 10 µM (PC-3) | inhibition of growth at 10 µM (UO-31) | inhibition of growth at 10 µM (TK-10) | inhibition of growth at 10 µM (CAKI-1) | inhibition of growth at 10 µM (ACHN) | inhibition of growth at 10 µM (786-0) | inhibition of growth at 10 µM [2] | inhibition of growth at 10 µM (OVCAR-8) | inhibition of growth at 10 µM (OVCAR-4) | inhibition of growth at 10 µM (OVCAR-3) | inhibition of growth at 10 µM (IGROV-1) | inhibition of growth at 10 µM (UACC-62) | also measured
COc1cc(NC(=O)CCSc2nc3ccccc3c(=O)n2CCc2ccccc2)cc(OC)c1OC | 28% | 28% | 10% | 45% | 34% | 27% | 67% | < 10% | 25% | 22% | 17% | 74% | 21% | 29% | 13% | 28% | 51% | 11% | 21% | 30% | inhibition of growth at 10 µM (UACC-257): 72%; inhibition of growth at 10 µM (SK-MEL-5): 31%; inhibition of growth at 10 µM (SK-MEL-28): 42%; inhibition of growth at 10 µM (MDA-MB-435): 38%; inhibition of growth at 10 µM (M14): 40%; inhibition of growth at 10 µM (LOX IMVI): 54%; inhibition of growth at 10 µM (U-251): 25%; inhibition of growth at 10 µM (SNB-75): 38%; inhibition of growth at 10 µM (SF-295): 10%; inhibition of growth at 10 µM (SF-268): 26%; inhibition of growth at 10 µM (KM12): 39%; inhibition of growth at 10 µM (HT-29): 18%; inhibition of growth at 10 µM (HCT-15): 18%; inhibition of growth at 10 µM (HCT-116): 40%; inhibition of growth at 10 µM (HCC 2998): < 10%; inhibition of growth at 10 µM (COLO 205): 20%; inhibition of growth at 10 µM (NCI-H460): 17%
COc1cc(OC(=O)CSc2nc3ccccc3c(=O)n2CCc2ccccc2)cc(OC)c1OC | 11% | < 10% | 16% | < 10% | 36% | < 10% | < 10% | < 10% | < 10% | 37% | < 10% | 28% | 10% | < 10% | 11% | < 10% | < 10% | < 10% | 11% | 23% | inhibition of growth at 10 µM (UACC-257): < 10%; inhibition of growth at 10 µM (SK-MEL-5): < 10%; inhibition of growth at 10 µM (SK-MEL-28): < 10%; inhibition of growth at 10 µM (MDA-MB-435): < 10%; inhibition of growth at 10 µM (M14): < 10%; inhibition of growth at 10 µM (LOX IMVI): < 10%; inhibition of growth at 10 µM (U-251): 26%; inhibition of growth at 10 µM (SNB-75): 12%; inhibition of growth at 10 µM (SF-295): 13%; inhibition of growth at 10 µM (SF-268): < 10%; inhibition of growth at 10 µM (KM12): < 10%; inhibition of growth at 10 µM (HT-29): < 10%; inhibition of growth at 10 µM (HCT-15): 48%; inhibition of growth at 10 µM (HCT-116): 20%; inhibition of growth at 10 µM (HCC 2998): < 10%; inhibition of growth at 10 µM (COLO 205): < 10%; inhibition of growth at 10 µM (NCI-H460): 26%
